Experiment [1] concerns Bacillus subtilis. Briefly: Antibacterial activity against Bacillus subtilis ATCC 6633 at 100 ug/mL by microdilution method. The format is functional, organism-based. In general terms: Dilution methods test growth across graded concentrations, often in twofold steps.
Experiment [2] concerns Escherichia coli. Briefly: Antibacterial activity against Escherichia coli ATCC 25922 at 100 ug/disk by disk diffusion method. The format is functional, organism-based. For orientation: Agar diffusion results depend on both activity and mobility in agar.
Experiment [3] concerns Candida albicans. In words: Antifungal activity against Candida albicans ATCC 90028 at 100 ug/mL by microdilution method. The experiment is classed as functional, organism-based.
In experiment [4] the test system is Candida albicans. In words: Antifungal activity against Candida albicans ATCC 90028 at 100 ug/disk by disk diffusion method. The experiment is classed as functional, organism-based.
Experiment [5] concerns Staphylococcus aureus. In words: Antibacterial activity against Staphylococcus aureus ATCC 29213 at 100 ug/mL by microdilution method. The format is functional, organism-based.
Experiment [6] relates to Bacillus subtilis. Briefly: Antibacterial activity against Bacillus subtilis ATCC 6633 at 100 ug/disk by disk diffusion method. The experiment is classed as functional.
The subject of experiment [7] is Staphylococcus aureus. In words: Antibacterial activity against Staphylococcus aureus ATCC 29213 at 100 ug/disk by disk diffusion method. The format is functional, organism-based.
Experiment [8] concerns Escherichia coli. Briefly: Antibacterial activity against Escherichia coli ATCC 25922 at 100 ug/mL by microdilution method. The format is functional, organism-based.
Experiment [9] relates to Staphylococcus aureus. In words: Antibacterial activity against Staphylococcus aureus ATCC 29213 by microdilution method. The experiment is classed as functional.
The test system of experiment [10] is Bacillus subtilis. Briefly: Antibacterial activity against Bacillus subtilis ATCC 6633 by microdilution method. The experiment is classed as functional.

Values after ≈ are worked out from the molar mass of the structure shown. Active and inactive are the calls of the source. The calls are words filed in the database; no cut-off is given here.

Regarding `COC(=O)C1=CC[C@H](O)[C@@H]2[C@@](C)(CCc3ccoc3)[C@H](CO)CC[C@@]12C`, the outcome with Bacillus subtilis [1], in the experiment with Escherichia coli [2], with Candida albicans [3], with Candida albicans [4], in the experiment with Staphylococcus aureus [5] and in the experiment on Bacillus subtilis [6] was inactive. Further, the result in the experiment with Staphylococcus aureus [7] and in the experiment on Escherichia coli [8] was inactive.

In general, MIC refers to the lowest concentration that inhibits growth of the organism. A high value points to weaker potency. As for `C[C@H]1CC[C@]2(C)C(C(=O)O)=CCC[C@H]2[C@]1(C)CCc1ccoc1`, the values for the MIC against Staphylococcus aureus [9] and in the experiment on Bacillus subtilis [10] were 25 µg/mL (≈ 79 µM) and 12.5 µg/mL (≈ 39.5 µM), respectively. The zone of inhibition at 100 µg/disc in the experiment on Bacillus subtilis [6] (read-out: IZ) came out at 10 mm.

Take `CC(=O)OC[C@@H]1CC[C@@]2(C)C(C(=O)O)=CCC[C@@H]2[C@@]1(C)CCc1ccoc1`: the outcome with Bacillus subtilis [1], in the experiment with Escherichia coli [2], in the experiment on Candida albicans [3], in the experiment with Candida albicans [4], in the experiment with Staphylococcus aureus [5] and with Bacillus subtilis [6] was inactive. Further, the outcome in the experiment with Staphylococcus aureus [7] and in the experiment with Escherichia coli [8] was inactive.

In turn, `C[C@@H]1CC[C@@]2(C)C(C(=O)O)=CCC[C@@H]2[C@@]1(C)CCc1ccoc1` displayed an MIC against Bacillus subtilis [10] of 0.78 µg/mL (≈ 2.46 µM).

For `C[C@@H]1CC[C@@]2(C)C(C(=O)O)=CC[C@H](O)[C@@H]2[C@@]1(C)CCc1ccoc1`, the outcome in the experiment on Bacillus subtilis [1], in the experiment with Escherichia coli [2], in the experiment with Candida albicans [3], with Candida albicans [4], with Staphylococcus aureus [5] and in the experiment with Bacillus subtilis [6] was inactive. Moreover, the outcome with Staphylococcus aureus [7] and in the experiment on Escherichia coli [8] was inactive.

These data come from ChEMBL document CHEMBL1147220, “Divinatorins A-C, new neoclerodane diterpenoids from the controlled sage Salvia divinorum” (2003).
